Laboratory results as given in ChEMBL document CHEMBL4715724, “Novel 5-substituted-2-anilinoquinolines with 3-(morpholino or 4-methylpiperazin-1-yl)propoxy moiety as broad spectrum antiproliferative agents: Synthesis, cell based assays and kinase screening” (Bioorg Med Chem Lett, 2016).

Key:
U-251 = assay: cells; format: functional; conditions: Homo sapiens, time 48 hrs
Description: Growth inhibition of human U-251 cells incubated for 48 hrs by sulforhodamine B assay

[1] = molecular target: Fibroblast growth factor receptor 3 (Homo sapiens) (UniProt P22607); assay: Inhibition of N-terminal His6-tagged human FGFR3 (447 to 761 residues) expressed in Sf21 cells assessed as residual activity at 10 uM relative to control
Chain of Fibroblast growth factor receptor 3 (Homo sapiens) (P22607 23-806 limits assumed): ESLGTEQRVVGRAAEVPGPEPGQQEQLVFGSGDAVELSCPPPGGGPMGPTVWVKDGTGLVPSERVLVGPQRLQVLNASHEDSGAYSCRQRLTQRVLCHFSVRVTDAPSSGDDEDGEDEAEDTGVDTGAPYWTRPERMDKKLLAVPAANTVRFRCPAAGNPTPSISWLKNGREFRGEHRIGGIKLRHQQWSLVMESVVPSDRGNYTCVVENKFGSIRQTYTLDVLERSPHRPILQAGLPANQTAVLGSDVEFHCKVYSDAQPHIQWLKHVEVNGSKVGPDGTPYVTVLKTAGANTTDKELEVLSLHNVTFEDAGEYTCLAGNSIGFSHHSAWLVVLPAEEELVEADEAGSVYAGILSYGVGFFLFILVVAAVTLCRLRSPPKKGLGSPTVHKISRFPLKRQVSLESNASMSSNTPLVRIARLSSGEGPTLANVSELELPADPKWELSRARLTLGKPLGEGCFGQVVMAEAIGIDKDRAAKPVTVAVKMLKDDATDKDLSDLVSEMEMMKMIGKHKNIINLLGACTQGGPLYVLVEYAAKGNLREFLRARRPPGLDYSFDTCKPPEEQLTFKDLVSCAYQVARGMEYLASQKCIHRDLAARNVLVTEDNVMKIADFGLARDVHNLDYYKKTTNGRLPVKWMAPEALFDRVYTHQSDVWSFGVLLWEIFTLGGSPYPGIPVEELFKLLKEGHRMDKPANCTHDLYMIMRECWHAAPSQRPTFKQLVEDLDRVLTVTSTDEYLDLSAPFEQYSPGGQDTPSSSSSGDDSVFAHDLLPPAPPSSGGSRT

[2] = molecular target: Cytoplasmic tyrosine-protein kinase BMX (Homo sapiens) (UniProt P51813); assay: Inhibition of N-terminal full length His6-tagged human recombinant BMX expressed in Sf21 cells assessed as residual activity at 10 uM relative to control
Chain of Cytoplasmic tyrosine-protein kinase BMX (Homo sapiens) (P51813 whole entry): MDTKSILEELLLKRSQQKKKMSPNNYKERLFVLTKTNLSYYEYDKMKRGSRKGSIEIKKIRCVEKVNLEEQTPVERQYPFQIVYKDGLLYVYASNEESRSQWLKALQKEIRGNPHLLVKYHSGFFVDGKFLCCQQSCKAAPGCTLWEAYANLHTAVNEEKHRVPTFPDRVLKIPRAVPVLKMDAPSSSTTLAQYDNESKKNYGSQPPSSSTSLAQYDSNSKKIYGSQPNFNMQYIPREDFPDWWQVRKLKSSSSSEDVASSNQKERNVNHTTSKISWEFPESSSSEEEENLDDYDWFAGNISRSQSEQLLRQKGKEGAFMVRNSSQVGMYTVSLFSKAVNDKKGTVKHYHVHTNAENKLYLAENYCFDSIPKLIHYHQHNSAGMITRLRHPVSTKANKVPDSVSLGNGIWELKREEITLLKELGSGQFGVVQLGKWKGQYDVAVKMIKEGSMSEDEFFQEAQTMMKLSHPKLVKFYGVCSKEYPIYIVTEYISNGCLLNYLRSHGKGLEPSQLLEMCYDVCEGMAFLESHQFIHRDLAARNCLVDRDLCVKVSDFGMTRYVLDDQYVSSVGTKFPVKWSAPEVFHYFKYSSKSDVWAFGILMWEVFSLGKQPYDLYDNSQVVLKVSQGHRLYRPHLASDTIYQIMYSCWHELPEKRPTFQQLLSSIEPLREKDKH

A549 = assay: cells; format: functional; conditions: Homo sapiens, time 48 hrs
Description: Growth inhibition of human A549/ATCC cells incubated for 48 hrs by sulforhodamine B assay

MDA-MB-468 = assay: cells; format: functional; conditions: Homo sapiens, time 48 hrs
Description: Growth inhibition of human MDA-MB-468 cells incubated for 48 hrs by sulforhodamine B assay

[3] = molecular target: Platelet-derived growth factor receptor beta (Homo sapiens) (UniProt P09619); assay: Inhibition of recombinant N-terminal His6-tagged human PDGFRbeta (557 to end residues) expressed in baculovirus infected Sf21 insect cells at 10 uM relative to control
SR = assay: cells; format: functional; conditions: Homo sapiens, time 48 hrs
Description: Growth inhibition of human SR cells incubated for 48 hrs by sulforhodamine B assay

[4] = molecular target: Hepatocyte growth factor receptor (Homo sapiens) (UniProt P08581); assay: Inhibition of recombinant N-terminal His6-tagged human MET (974 to end residues) expressed in baculovirus infected Sf21 insect cells at 10 uM relative to control
IGROV-1 = assay: cells; format: functional; conditions: Homo sapiens, time 48 hrs
Description: Growth inhibition of human IGROV-1 cells incubated for 48 hrs by sulforhodamine B assay

MDA-MB-231 = assay: cells; format: functional; conditions: Homo sapiens, time 48 hrs
Description: Growth inhibition of human MDA-MB-231/ATCC cells incubated for 48 hrs by sulforhodamine B assay

[5] = molecular target: Platelet-derived growth factor receptor alpha (Homo sapiens) (UniProt P16234); assay: Inhibition of recombinant N-terminal His6-tagged human PDGFRalpha (550 to end residues) expressed in baculovirus infected Sf21 insect cells at 10 uM relative to control
Chain of Platelet-derived growth factor receptor alpha (Homo sapiens) (P16234 whole entry): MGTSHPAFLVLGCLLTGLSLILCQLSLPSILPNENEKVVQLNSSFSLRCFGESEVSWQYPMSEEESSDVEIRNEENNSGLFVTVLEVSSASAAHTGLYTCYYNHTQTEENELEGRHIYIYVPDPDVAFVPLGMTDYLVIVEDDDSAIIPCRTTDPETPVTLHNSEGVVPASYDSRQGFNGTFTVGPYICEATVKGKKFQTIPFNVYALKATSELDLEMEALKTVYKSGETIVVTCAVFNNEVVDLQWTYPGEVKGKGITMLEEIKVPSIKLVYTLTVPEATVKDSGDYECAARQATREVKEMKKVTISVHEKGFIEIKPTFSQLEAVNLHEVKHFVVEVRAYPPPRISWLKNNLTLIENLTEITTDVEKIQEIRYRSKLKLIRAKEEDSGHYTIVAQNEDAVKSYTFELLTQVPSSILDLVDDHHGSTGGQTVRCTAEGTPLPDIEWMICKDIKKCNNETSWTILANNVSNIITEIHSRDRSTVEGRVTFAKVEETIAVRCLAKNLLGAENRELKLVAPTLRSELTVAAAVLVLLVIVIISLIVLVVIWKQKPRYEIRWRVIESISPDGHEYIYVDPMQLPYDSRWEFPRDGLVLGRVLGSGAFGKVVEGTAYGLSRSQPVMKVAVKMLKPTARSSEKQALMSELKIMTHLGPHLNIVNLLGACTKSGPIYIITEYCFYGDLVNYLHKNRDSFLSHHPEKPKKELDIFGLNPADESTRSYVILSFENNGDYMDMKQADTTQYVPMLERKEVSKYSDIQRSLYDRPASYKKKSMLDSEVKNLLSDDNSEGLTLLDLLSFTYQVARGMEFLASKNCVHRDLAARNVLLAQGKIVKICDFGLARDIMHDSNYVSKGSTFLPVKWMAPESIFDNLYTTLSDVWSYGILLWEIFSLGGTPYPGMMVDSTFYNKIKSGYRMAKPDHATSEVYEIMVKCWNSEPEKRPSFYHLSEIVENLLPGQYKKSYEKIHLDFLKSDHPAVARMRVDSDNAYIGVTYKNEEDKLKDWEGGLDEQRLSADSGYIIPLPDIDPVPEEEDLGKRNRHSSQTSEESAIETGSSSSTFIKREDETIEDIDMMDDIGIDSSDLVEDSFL

[6] = molecular target: Fibroblast growth factor receptor 1 (Homo sapiens) (UniProt P11362); assay: Inhibition of human FGFR1 assessed as residual activity at 10 uM relative to control
CCRF-CEM = assay: cells; format: functional; conditions: Homo sapiens, time 48 hrs
Description: Growth inhibition of human CCRF-CEM cells incubated for 48 hrs by sulforhodamine B assay

NCI-H522 = assay: cells; format: functional; conditions: Homo sapiens, time 48 hrs
Description: Growth inhibition of human NCI-H522 cells incubated for 48 hrs by sulforhodamine B assay

[7] = molecular target: Tyrosine-protein kinase SYK (Homo sapiens) (UniProt P43405); assay: Inhibition of recombinant full length N-terminal His6-tagged human SYK expressed in baculovirus infected Sf21 insect cells at 10 uM relative to control
NCI-H23 = assay: cells; format: functional; conditions: Homo sapiens, time 48 hrs
Description: Growth inhibition of human NCI-H23 cells incubated for 48 hrs by sulforhodamine B assay

[8] = molecular target: Ephrin type-B receptor 2 (Homo sapiens) (UniProt P29323); assay: Inhibition of N-terminal His6-tagged human EphB2 (560 to end residues) expressed in baculovirus-infected Sf21 cells assessed as residual activity at 10 uM relative to control
Chain of Ephrin type-B receptor 2 (Homo sapiens) (P29323 whole entry): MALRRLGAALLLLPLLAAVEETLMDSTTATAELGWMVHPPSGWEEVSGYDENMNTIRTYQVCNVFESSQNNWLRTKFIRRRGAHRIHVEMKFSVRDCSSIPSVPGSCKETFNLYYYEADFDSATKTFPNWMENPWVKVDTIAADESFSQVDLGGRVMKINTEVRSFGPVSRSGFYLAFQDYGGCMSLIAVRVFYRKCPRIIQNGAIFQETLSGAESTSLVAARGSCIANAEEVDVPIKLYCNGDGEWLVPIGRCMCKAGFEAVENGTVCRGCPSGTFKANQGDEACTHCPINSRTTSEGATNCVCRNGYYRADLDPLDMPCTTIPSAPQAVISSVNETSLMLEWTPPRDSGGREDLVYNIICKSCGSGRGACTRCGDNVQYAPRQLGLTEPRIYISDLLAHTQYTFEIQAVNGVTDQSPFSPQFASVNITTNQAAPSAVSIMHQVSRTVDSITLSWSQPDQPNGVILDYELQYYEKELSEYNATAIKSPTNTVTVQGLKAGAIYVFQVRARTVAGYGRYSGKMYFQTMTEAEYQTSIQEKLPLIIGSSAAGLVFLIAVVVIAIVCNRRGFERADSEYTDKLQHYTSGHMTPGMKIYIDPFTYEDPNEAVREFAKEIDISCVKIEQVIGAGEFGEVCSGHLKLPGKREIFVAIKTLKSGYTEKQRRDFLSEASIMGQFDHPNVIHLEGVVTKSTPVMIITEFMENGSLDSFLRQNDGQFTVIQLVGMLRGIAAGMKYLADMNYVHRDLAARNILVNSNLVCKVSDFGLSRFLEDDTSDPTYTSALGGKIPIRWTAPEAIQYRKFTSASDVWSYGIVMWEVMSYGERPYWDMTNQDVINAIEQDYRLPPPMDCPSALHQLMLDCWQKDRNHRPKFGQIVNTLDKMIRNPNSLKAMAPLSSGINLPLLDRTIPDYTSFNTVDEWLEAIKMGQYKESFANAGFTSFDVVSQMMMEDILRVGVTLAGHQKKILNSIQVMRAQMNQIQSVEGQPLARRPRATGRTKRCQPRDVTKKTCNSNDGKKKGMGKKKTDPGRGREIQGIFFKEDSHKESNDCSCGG

OVCAR-3 = assay: cells; format: functional; conditions: Homo sapiens, time 48 hrs
Description: Growth inhibition of human OVCAR-3 cells incubated for 48 hrs by sulforhodamine B assay

[9] = molecular target: Ephrin type-B receptor 4 (Homo sapiens) (UniProt P54760); assay: Inhibition of human EphB4 at 10 uM relative to control
[10] = test system: Tyrosine-protein kinase ABL1 (Homo sapiens), P00519 [T315I]; assay: Inhibition of recombinant N-terminal His6-tagged human ABL T315I mutant (27 to end residues) expressed in baculovirus infected Sf21 insect cells assessed as residual activity at 10 uM relative to control
[11] = molecular target: RAF proto-oncogene serine/threonine-protein kinase (Homo sapiens) (UniProt P04049); assay: Inhibition of recombinant N-terminal GST-tagged human CRAF (306 to 648 residues) expressed in Sf9 cells assessed as residual activity at 10 uM relative to control
[12] = test system: Panel CNS (Carcinoma cell lines); assay: cells; format: functional; conditions: Homo sapiens, time 48 hrs
Description: Growth inhibition of human Panel CNS (Carcinoma cell lines) incubated for 48 hrs by sulforhodamine B assay

[13] = molecular target: Fibroblast growth factor receptor 2 (Homo sapiens) (UniProt P21802); assay: Inhibition of N-terminal His6-tagged human FGFR2 (456 to 770 residues) expressed in baculovirus-infected Sf21 cells assessed as residual activity at 10 uM relative to control
Chain of Fibroblast growth factor receptor 2 (Homo sapiens) (P21802 22-821 limits assumed): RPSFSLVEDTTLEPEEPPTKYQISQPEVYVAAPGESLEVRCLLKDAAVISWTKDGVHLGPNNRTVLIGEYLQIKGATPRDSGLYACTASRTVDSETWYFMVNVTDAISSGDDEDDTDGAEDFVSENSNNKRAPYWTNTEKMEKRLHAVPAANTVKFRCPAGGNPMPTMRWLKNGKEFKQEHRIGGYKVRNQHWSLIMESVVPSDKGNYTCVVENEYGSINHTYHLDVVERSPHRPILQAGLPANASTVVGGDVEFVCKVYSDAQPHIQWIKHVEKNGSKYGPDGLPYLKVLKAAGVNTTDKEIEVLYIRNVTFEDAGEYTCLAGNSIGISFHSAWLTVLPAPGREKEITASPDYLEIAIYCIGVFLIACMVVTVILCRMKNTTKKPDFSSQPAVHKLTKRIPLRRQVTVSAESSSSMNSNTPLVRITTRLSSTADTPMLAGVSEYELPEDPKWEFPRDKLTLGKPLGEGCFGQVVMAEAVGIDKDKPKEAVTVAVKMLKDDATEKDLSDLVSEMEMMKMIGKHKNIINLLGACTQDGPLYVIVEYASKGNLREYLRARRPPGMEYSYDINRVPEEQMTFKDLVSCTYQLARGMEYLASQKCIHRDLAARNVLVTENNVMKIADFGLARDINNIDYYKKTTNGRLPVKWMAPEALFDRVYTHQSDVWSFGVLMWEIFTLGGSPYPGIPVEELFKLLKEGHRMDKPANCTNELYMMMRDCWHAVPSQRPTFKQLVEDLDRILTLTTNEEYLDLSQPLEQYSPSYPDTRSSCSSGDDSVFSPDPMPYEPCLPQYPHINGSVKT

[14] = molecular target: Aurora kinase A (Homo sapiens) (UniProt O14965); assay: Inhibition of human recombinant Aurora A assessed as residual activity at 10 uM relative to control
HCT-116 = assay: cells; format: functional; conditions: Homo sapiens, time 48 hrs
Description: Growth inhibition of human HCT-116 cells incubated for 48 hrs by sulforhodamine B assay

[15] = molecular target: Vascular endothelial growth factor receptor 2 (Homo sapiens) (UniProt P35968); assay: Inhibition of N-terminal His6-tagged recombinant human KDR (790 to end residues) expressed in baculovirus infected Sf21 cells at 10 uM relative to control
[16] = molecular target: Proto-oncogene tyrosine-protein kinase ROS (Homo sapiens) (UniProt P08922); assay: Inhibition of recombinant N-terminal His6-tagged human ROS (1883 to end residues) expressed in baculovirus infected Sf21 insect cells at 10 uM relative to control
[17] = test system: Panel breast (Carcinoma cell lines); assay: cells; format: functional; conditions: Homo sapiens, time 48 hrs
Description: Growth inhibition of human Panel breast (Carcinoma cell lines) incubated for 48 hrs by sulforhodamine B assay

[18] = Cytotoxicity against human HFF-1 cells assessed as cell growth inhibition at 1 uM by MTT assay relative to control; format: cell-based; conditions: read-out: GI
HOP-92 = assay: cells; format: functional; conditions: Homo sapiens, time 48 hrs
Description: Growth inhibition of human HOP-92 cells incubated for 48 hrs by sulforhodamine B assay

UACC-257 = assay: cells; format: functional; conditions: Homo sapiens, time 48 hrs
Description: Growth inhibition of human UACC-257 cells incubated for 48 hrs by sulforhodamine B assay

[19] = molecular target: CDK3/Cyclin E (Homo sapiens) (UniProt P24864+Q00526); assay: Inhibition of full length C-terminal His6-tagged human CDK3/full length N-terminal GST-tagged human Cyclin E expressed in baculovirus infected Sf21 insect cells assessed as residual activity at 10 uM relative to control
NCI-H460 = assay: cells; format: functional; conditions: Homo sapiens, time 48 hrs
Description: Growth inhibition of human NCI-H460 cells incubated for 48 hrs by sulforhodamine B assay

[20] = molecular target: MAP kinase-activated protein kinase 2 (Homo sapiens) (UniProt P49137); assay: Inhibition of human MAPKAPK2 expressed in Escherichia coli at 10 uM relative to control
Chain of MAP kinase-activated protein kinase 2 (Homo sapiens) (P49137 whole entry, looked up): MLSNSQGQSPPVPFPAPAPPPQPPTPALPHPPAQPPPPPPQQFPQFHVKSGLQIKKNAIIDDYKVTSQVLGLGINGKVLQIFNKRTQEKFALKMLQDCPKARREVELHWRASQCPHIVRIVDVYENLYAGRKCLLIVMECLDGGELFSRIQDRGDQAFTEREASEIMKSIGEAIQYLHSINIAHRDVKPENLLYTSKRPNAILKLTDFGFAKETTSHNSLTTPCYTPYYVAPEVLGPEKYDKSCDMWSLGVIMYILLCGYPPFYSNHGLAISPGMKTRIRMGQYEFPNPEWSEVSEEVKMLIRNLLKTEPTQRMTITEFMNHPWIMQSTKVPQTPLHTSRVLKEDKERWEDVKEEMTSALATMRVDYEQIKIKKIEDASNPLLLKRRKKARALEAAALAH

SK-MEL-28 = assay: cells; format: functional; conditions: Homo sapiens, time 48 hrs
Description: Growth inhibition of human SK-MEL-28 cells incubated for 48 hrs by sulforhodamine B assay

[21] = molecular target: Tyrosine-protein kinase JAK2 (Homo sapiens) (UniProt O60674); assay: Inhibition of recombinant C-terminal His6-tagged human JAK2 (808 to end residues) expressed in baculovirus infected Sf21 insect cells at 10 uM relative to control
[22] = test system: Panel NCI-60 (60 carcinoma cell lines); assay: cells; format: functional; conditions: Homo sapiens, time 48 hrs
Description: Growth inhibition of human Panel NCI-60 (60 carcinoma cell lines) incubated for 48 hrs by sulforhodamine B assay

LOX IMVI = assay: Growth inhibition of human LOX IMVI cells assessed as growth percentage at 10 uM measured after 48 hrs by sulforhodamine B assay relative to control; format: functional; conditions: read-out: Activity
[23] = read-out: LC50 (the source's name)

CN1CCN(CCCOc2cccc3nc(Nc4ccc(Cl)c(C(F)(F)F)c4)ccc23)CC1
GI50 (U-251): 1490 nM
Activity [1]: < 60%
Activity [2]: < 60%
GI50 (A549): 1720 nM
GI50 (MDA-MB-468): 1600 nM
inhibition [3]: < 60%
GI50 (SR): 540 nM
inhibition [4]: < 60%
GI50 (IGROV-1): 1850 nM
GI50 (MDA-MB-231): 1470 nM
inhibition [5]: < 60%
Activity [6]: < 60%
GI50 (CCRF-CEM): 1210 nM
GI50 (NCI-H522): 1830 nM
inhibition [7]: < 60%
GI50 (NCI-H23): 1780 nM
Activity [8]: < 60%
GI50 (OVCAR-3): 1810 nM
inhibition [9]: < 60%
Activity [10]: < 60%
Activity [11]: < 60%
GI50 [12]: 1650 nM
TGI [12]: 3670 nM
CC50 [12, 23]: 6980 nM
Activity [13]: < 60%
Activity [14]: < 60%
GI50 (HCT-116): 1500 nM
inhibition [15]: < 60%
inhibition [16]: < 60%
GI50 [17]: 1690 nM
TGI [17]: 3630 nM
CC50 [17, 23]: 11200 nM
inhibition at 1 µM [18]: 12.7%
GI50 (HOP-92): 1020 nM
GI50 (UACC-257): 1720 nM
Activity [19]: < 60%
GI50 (NCI-H460): 1720 nM
inhibition [20]: < 60%
GI50 (SK-MEL-28): 1390 nM
inhibition [21]: < 60%
GI50 [22]: 1620 nM
TGI [22]: 3470 nM
CC50 [22, 23]: 8130 nM
growth at 10 µM (LOX IMVI): -5.77%
